Source: PubChem BioAssay (NCI)
“And” between values parts separate entries of the source, which are not always exact repeats. Identical values can stand only once.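 Following 48 hours of exposure in 96-well plates, responses at five concentrations were used to interpolate endpoints linearly. GI50 = concentration required for 50% inhibition of growth. TGI: concentration producing complete growth inhibition.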

How the values were obtained:
Test in all cases: inhibition of tumour cell growth, NCI panel, 48 h
SNB-19 CNS = test system: SNB-19 CNS
CCRF-CEM leukemia = test system: CCRF-CEM leukemia
SNB-75 CNS = test system: SNB-75 CNS
MDA-MB-231 breast = test system: MDA-MB-231 breast
ACHN renal = test system: ACHN renal
NCI/ADR-RES ovarian = test system: NCI/ADR-RES ovarian
SK-MEL-28 melanoma = test system: SK-MEL-28 melanoma
SN12C renal = test system: SN12C renal
EKVX NSCLC = test system: EKVX NSCLC
HCC-2998 colon = test system: HCC-2998 colon

CC(O)C1OC(O)C2OC(C)(C)OC12 (centres undefined)
TGI (SNB-19 CNS): > 100 µM | TGI (CCRF-CEM leukemia): > 100 µM | TGI (SNB-75 CNS): > 100 µM | TGI (MDA-MB-231 breast): > 100 µM | TGI (ACHN renal): > 100 µM | TGI (NCI/ADR-RES ovarian): > 100 µM | TGI (SK-MEL-28 melanoma): > 100 µM | TGI (SN12C renal): > 100 µM | TGI (EKVX NSCLC): > 100 µM

COc1ccc(-c2ccc(C3CC(c4ccc(O)cc4)=NN3)o2)c([N+](=O)[O-])c1 (centres undefined)
GI50 (SNB-19 CNS): 82.6 µM | TGI (SNB-19 CNS): > 100 µM | GI50 (CCRF-CEM leukemia): 4.84 µM | TGI (CCRF-CEM leukemia): > 100 µM | GI50 (ACHN renal): 42 µM | TGI (ACHN renal): > 100 µM | GI50 (NCI/ADR-RES ovarian): 38.5 µM | TGI (NCI/ADR-RES ovarian): > 100 µM | GI50 (SK-MEL-28 melanoma): 45.8 µM | TGI (SK-MEL-28 melanoma): > 100 µM | GI50 (SN12C renal): 30.8 µM | TGI (SN12C renal): > 100 µM | GI50 (EKVX NSCLC): 43 µM | TGI (EKVX NSCLC): > 100 µM

CCC/C(=N\NC(=S)N1CCN(c2ccccn2)CC1)c1ccccn1
TGI (SNB-19 CNS): > 4.24 µM and 1.7 µM | GI50 (CCRF-CEM leukemia): < 0.001 µM | TGI (CCRF-CEM leukemia): 0.0216 µM and 0.0281 µM | TGI (SNB-75 CNS): 1.84 µM and 0.325 µM | TGI (MDA-MB-231 breast): 1.91 µM | GI50 (ACHN renal): 0.0156 µM | TGI (ACHN renal): > 3.16 µM and 1.24 µM | TGI (SK-MEL-28 melanoma): > 10 µM and 1.47 µM | GI50 (HCC-2998 colon): 0.0462 µM | TGI (HCC-2998 colon): 1.64 µM and 1.59 µM | GI50 (SN12C renal): 0.339 µM | TGI (SN12C renal): 1.94 µM and 1.46 µM | GI50 (EKVX NSCLC): 0.0308 µM

CC1=CC=NN2C(=O)[C@H](C)C2C1 (some centres undefined)
TGI (SNB-19 CNS): > 100 µM | TGI (CCRF-CEM leukemia): > 100 µM | TGI (SNB-75 CNS): > 100 µM | TGI (ACHN renal): > 100 µM | TGI (SK-MEL-28 melanoma): > 100 µM | TGI (HCC-2998 colon): > 100 µM | TGI (SN12C renal): > 100 µM | TGI (EKVX NSCLC): > 100 µM

COc1ccc2[nH]cc(CCNC(C)=O)c2c1
TGI (SNB-19 CNS): > 100 µM | TGI (CCRF-CEM leukemia): > 100 µM | TGI (SNB-75 CNS): > 100 µM | TGI (ACHN renal): > 100 µM | TGI (SK-MEL-28 melanoma): > 100 µM | TGI (SN12C renal): > 100 µM | TGI (EKVX NSCLC): > 100 µM

O=C(Cc1nc2ccccc2s1)C(=O)Nc1ccc(Cl)cc1
TGI (SNB-19 CNS): > 100 µM | TGI (SNB-75 CNS): > 100 µM | TGI (ACHN renal): > 100 µM | TGI (SK-MEL-28 melanoma): > 100 µM | TGI (HCC-2998 colon): > 100 µM | TGI (SN12C renal): > 100 µM | TGI (EKVX NSCLC): > 100 µM

COc1cccc(N2C(=O)c3c(c4[nH]c5ccccc5c4c4ccc(C(C)(C)C)cc34)C2=O)c1
TGI (SNB-19 CNS): > 100 µM | TGI (CCRF-CEM leukemia): > 100 µM | TGI (SNB-75 CNS): > 100 µM | TGI (ACHN renal): > 100 µM | TGI (SK-MEL-28 melanoma): > 100 µM | TGI (HCC-2998 colon): > 100 µM | TGI (SN12C renal): > 100 µM | TGI (EKVX NSCLC): > 100 µM

COc1cc(Nc2cnc3cc(C(F)(F)F)ccc3n2)cc(OC)c1OC
TGI (SNB-19 CNS): > 100 µM | TGI (CCRF-CEM leukemia): > 100 µM | TGI (SNB-75 CNS): > 100 µM | TGI (ACHN renal): > 100 µM | TGI (SK-MEL-28 melanoma): > 100 µM | TGI (HCC-2998 colon): > 100 µM | TGI (SN12C renal): > 100 µM | TGI (EKVX NSCLC): > 100 µM

CCN(CC)CCCN(c1cc(OC)cc2nccnc12)S(=O)(=O)c1ccc(C)cc1
TGI (SNB-19 CNS): > 100 µM | TGI (CCRF-CEM leukemia): > 100 µM | TGI (SNB-75 CNS): > 100 µM | TGI (ACHN renal): > 100 µM | TGI (SK-MEL-28 melanoma): > 100 µM | TGI (HCC-2998 colon): > 100 µM | TGI (SN12C renal): > 100 µM | TGI (EKVX NSCLC): > 100 µM

OCCN(CCO)N=Nc1ccc(-c2nc3ccccc3[nH]2)cc1
GI50 (SNB-19 CNS): > 100 µM | TGI (SNB-19 CNS): > 100 µM | GI50 (SNB-75 CNS): 28.9 µM | TGI (SNB-75 CNS): > 100 µM | GI50 (MDA-MB-231 breast): 31.3 µM | TGI (MDA-MB-231 breast): 97.8 µM | GI50 (ACHN renal): 35.6 µM | TGI (ACHN renal): > 100 µM | GI50 (NCI/ADR-RES ovarian): 34 µM | TGI (NCI/ADR-RES ovarian): 58 µM | GI50 (SK-MEL-28 melanoma): 15.8 µM | TGI (SK-MEL-28 melanoma): 29.5 µM | GI50 (SN12C renal): 85.5 µM | TGI (SN12C renal): > 100 µM | GI50 (EKVX NSCLC): 17.1 µM | TGI (EKVX NSCLC): 37.5 µM

COc1ccc(OCC(=O)O)c2c1CCC(C(C)C)C2=O (centres undefined)
TGI (SNB-19 CNS): > 100 µM | TGI (CCRF-CEM leukemia): > 100 µM | TGI (ACHN renal): > 100 µM | TGI (SK-MEL-28 melanoma): > 100 µM | TGI (HCC-2998 colon): > 100 µM | TGI (EKVX NSCLC): > 100 µM
